Measurements as given in US20070111251A1, “Chemical address tags” (priority 2003, published 2007).

System: live UACC-62 human melanoma cells
Assay: Organelle-binding test: subcellular localization of styryl library compounds by fluorescence microscopy
Format: cell-based
Design: key to experimentally determined localization (subscript): The subscript m indicates experimentally determined mitochondrial localization; The subscript o indicates experimentally determined non-mitochondrial localization
Details: for representative localization: FIG. 5, live UACC-62 cells; for experimentally determined localization (subscript): mitochondrial vs non-mitochondrial, live UACC-62 cells
Method: The synthesis was designed so that the reaction mixture can be used directly in biological screening; toxic catalysts (e.g., such as strong acids, bases, and metals) were avoided, and most of the low-boiling point solvents and catalysts (e.g., pyrrolidine) were removed during the microwave reaction, leaving only DMSO, a common solvent for biological sample preparation. In some embodiments, without further purification, the library compounds were incubated with live UACC-62 human melanoma cells growing on glass bottom 96-well plates, and the localizations of the different compounds in the cells were determined using an Axiovert (Carl Zeiss, Inc., Thornwood, N.Y.) microscope (λex=405, 490, and 570 nm; λem>510 nm) with a 100× Zeiss oil immersion objective. […] The images in FIG. 5 show cells stained with selected fluorescent compounds.
Unless otherwise noted in this example, the materials and solvents were obtained from commercial suppliers and were used without further purification. The plate reader used in this example was a Spectra Max Gemini XSF (Molecular Devices, Corp., Sunnyvale, Calif.). In preferred embodiments, for organelle-binding tests, UACC-62 melanoma cells were selected amongst a panel of 60 human cancer cell lines, because their well-spread morphology on glass made them ideally suited for imaging purposes as well as their relevance to biomedical research. (See e.g., R. H. Shoemaker et al., Development of human tumor cell line panels for use in disease oriented drug screening. In: Hall, T. ed., Prediction of Response to Anti-cancer Chemotherapy, New York N.Y.: Alan Liss, 265-286 [1988]).
In some of these embodiments, UACC-62 cells (obtained from the Developmental Therapeutics Program at the National Cancer Institute) were grown in RPMI medium supplemented with 10% fetal calf serum. For microscopy, cells were plated on 96 well tissue-culture plates (Falcon) overnight, in RPMI plus 10% fetal calf serum, at 37° C. in 5% CO2/95% air. Cells were incubated with compounds at an approximate concentration of 50 μM for 1 hour.
A Zeiss Axiovert 135M (Carl Zeiss, Inc., Thornwood, N.Y.) inverted fluorescence microscope outfitted with a FITC/TRITC multipass filter cube (Chroma Technology, Corp., Rockingham, Vt.) was used for screening and routine cell biological fluorescence imaging applications. In some embodiments, epifluorescence microscopy was performed using a Zeiss Axiovert epifluorescence microscope equipped with a 20× objective.
The library compounds, without further purification, were incubated with live UACC-62 human melanoma cells growing on glass bottom 96-well plates (Sigma-Aldrich Corp., St. Louis, Mo.), and the localizations of the different compounds in the cells were determined by an inverted fluorescence microscope (λex=405, 490, and 570 nm; λem>510 nm) at 1000× magnification. Based on their morphology and subcellular distribution, the localizations were ascribed to mitochondria, ER (endoplasmic reticulum), nucleoli, nuclear, and cytoplasmic staining patterns such as diffuse (based on the homogenous staining appearance and exclusion from the nucleus), granular (punctate staining pattern, generally associated with the cell margins) or vesicular (heterogeneous staining pattern, generally associated with the nuclear periphery). Localization studies were performed without a priori information of the compounds' molecular structures. It was possible to ascribe the localization of the compounds to nucleus or cytoplasm, as these organelles are clearly discernible with phase contrast optics. Similarly, it was possible to ascribe localization to nucleoli, as these structures appeared as the most prominent, phase-dense structures within the nucleus. Localization to mitochondria was based on the elongated, characteristic shape of these organelles, which stain positive with established mitochondrial-specific fluorescent probes, like […] or JC-1. (L. B. Chen, Methods Cell Bio., 29:103-123 [1989]). […]

| SMILES | representative localization | experimentally determined localization (subscript) |
| --- | --- | --- |
| COc1ccc2c(ccc(/C=C/c3ccc(N(C)C)cc3)[n+]2C)c1.[I-] [Compound 119] | nucleolar | – |
| COc1ccc2c(ccc(C=CC=Cc3ccc(N(C)C)cc3)[n+]2C)c1.[I-] [Compound 137] | cytosolic | – |
| C[n+]1ccc(C=CCc2ccccc2)cc1.[I-] [Compound A1-B1] | – | o |
| C(=Cc1cc[n+](C23CC4CC(CC(C4)C2)C3)cc1)Cc1ccccc1.[Br-] [Compound A1-B2] | – | o |
| C[n+]1c(C=CCc2ccccc2)ccc2ccccc21.[I-] [Compound A1-B8] | – | m |
| COc1ccc2c(ccc(C=CCc3ccccc3)[n+]2C)c1.[I-] [Compound A1-B9] | – | m |
| Cc1ccnc(-c2cc(C=CCc3ccccc3)cc[n+]2C)c1.[I-] [Compound A1-B10] | – | m |
| COc1ccc(C=Cc2ccc3cc(OC)ccc3[n+]2C)cc1.[I-] [Compound A10-B9] | – | o |
| C[n+]1ccc(C=Cc2ccc(OCc3ccccc3)c(OCc3ccccc3)c2)cc1.[I-] [Compound A12-B1] | mitochondria | m |
| C[n+]1ccccc1C=Cc1ccc(OCc2ccccc2)c(OCc2ccccc2)c1.[I-] [Compound A12-B3] | – | m |
| CCc1ccc(C=Cc2ccc(OCc3ccccc3)c(OCc3ccccc3)c2)[n+](C)c1.[I-] [Compound A12-B5] | – | o |
| C[n+]1ccc(C=Cc2ccc(OCc3ccccc3)c(OCc3ccccc3)c2)c2ccccc21.[I-] [Compound A12-B7] | – | m |
| Cc1cccc(C=Cc2ccc(OCc3ccccc3)c(OCc3ccccc3)c2)[n+]1C.[I-] [Compound A12-B12] | – | o |
| Cc1cc(C)[n+](C)c(C=Cc2ccc(OCc3ccccc3)c(OCc3ccccc3)c2)c1.[I-] [Compound A12-B13] | – | o |
| COc1ccc(C=Cc2cc[n+](C34CC5CC(CC(C5)C3)C4)cc2)c2ccccc12.[Br-] [Compound A14-B2] | – | o |
| COc1ccc(C=Cc2ccc3ccccc3[n+]2C)cc1O.[I-] [Compound A15-B8] | – | m |
| Oc1ccc(C=Cc2cc[n+](C34CC5CC(CC(C5)C3)C4)cc2)cc1.[Br-] [Compound A16-B2] | – | m |
| CC(=O)Nc1ccc(C=Cc2ccc3ccccc3[n+]2C)cc1.[I-] [Compound A18-B8] | – | m |
| COc1ccc2c(ccc(C=Cc3ccc(NC(C)=O)cc3)[n+]2C)c1.[I-] [Compound A18-B9] | – | o |
| CN(C)c1ccc(C=Cc2ccc3ccccc3[n+]2C)cc1.[I-] [Compound A19-B8] | – | o |
| C[n+]1ccc(C=Cc2ccccc2[N+](=O)[O-])c2ccccc21.[I-] [Compound A20-B7] | – | m |

| SMILES | representative localization | experimentally determined localization (subscript) |
| --- | --- | --- |
| C[n+]1c(C=Cc2cccc([N+](=O)[O-])c2)ccc2ccccc21.[I-] [Compound A21-B8] | – | m |
| COc1ccc2c(ccc(C=Cc3cccc([N+](=O)[O-])c3)[n+]2C)c1.[I-] [Compound A21-B9] | – | o |
| COc1ccc2ccccc2c1C=Cc1cc[n+](C)cc1.[I-] [Compound A23-B1] | – | m |
| COc1ccc2ccccc2c1C=Cc1cccc[n+]1C.[I-] [Compound A23-B3] | – | o |
| COc1ccc2ccccc2c1C=Cc1c(C)ccc[n+]1C.[I-] [Compound A23-B4] | – | o |
| C[n+]1ccc(C=Cc2c[nH]c3ccccc23)cc1.[I-] [Compound A24-B1] | – | o |
| C(=Cc1c[nH]c2ccccc12)c1cc[n+](C23CC4CC(CC(C4)C2)C3)cc1.[Br-] [Compound A24-B2] | mitochondria | m |
| Cc1cc[n+](C)c(/C=C/c2c[nH]c3ccccc23)c1.[I-] [Compound A24-B11] | – | m |
| CN(C)c1ccc(C=Cc2cc[n+](C)cc2)c2ccccc12.[I-] [Compound A27-B1] | – | o |
| CN(C)c1ccc(C=Cc2ccc3ccccc3[n+]2C)c2ccccc12.[I-] [Compound A27-B8] | – | m |
| Cc1ccnc(-c2cc(C=CC=Cc3ccccc3)cc[n+]2C)c1.[I-] [Compound A35-B10] | – | o |
| Cc1cccc(C=CC=Cc2ccccc2)[n+]1C.[I-] [Compound A35-B12] | – | m |
| Cc1ccc[n+](C)c1C=CC=Cc1ccc(N(C)C)cc1.[I-] [Compound A37-B4] | – | m |
| Cc1ccnc(-c2cc(C=CC=Cc3ccc(N(C)C)cc3)cc[n+]2C)c1.[I-] [Compound A37-B10] | reticular | o |
| COc1cc(OC)c(OC)cc1C=Cc1cc[n+](C23CC4CC(CC(C4)C2)C3)cc1.[Br-] [Compound A38-B2] | – | m |
| COc1cc(OC)c(OC)cc1C=Cc1cc[n+](C)c2ccccc12.[I-] [Compound A38-B7] | – | o |
| COc1cc(OC)c(OC)cc1C=Cc1cc[n+](C)c(-c2cc(C)ccn2)c1.[I-] [Compound A38-B10] | – | m |
| C[n+]1c(C=Cc2ccc3c(c2)OCO3)ccc2ccccc21.[I-] [Compound A39-B8] | – | o |
| C[n+]1c(C=Cc2ccc(OCc3ccccc3)c(OCc3ccccc3)c2)ccc2ccccc21.[I-] [Compound H12] | vesicular | – |
| C[n+]1c(C=Cc2ccc3c(c2)Cc2ccccc2-3)ccc2ccccc21.[I-] [Compound H28] | nuclear | – |
